What was measured:
[1] = biological target: T1, NH(3)-dependent NAD(+) synthetase (Bacillus anthracis, UniProt Q81RP3); test: NADs HPLC Enzyme Assay; conditions: pH 8.5; 4 °C
T1 sequence (Q81RP3 whole entry): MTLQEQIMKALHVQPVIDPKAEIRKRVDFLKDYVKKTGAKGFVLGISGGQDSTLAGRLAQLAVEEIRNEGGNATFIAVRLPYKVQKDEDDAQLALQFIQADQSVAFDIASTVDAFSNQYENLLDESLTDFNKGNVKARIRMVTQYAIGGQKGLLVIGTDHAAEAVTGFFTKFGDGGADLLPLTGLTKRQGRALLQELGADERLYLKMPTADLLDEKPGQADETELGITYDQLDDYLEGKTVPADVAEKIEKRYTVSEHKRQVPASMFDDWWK
Description: Inhibitory concentration of the compound measured against B. anthracis Nicotinamide adenine dinucleotide synthetase (NADs) using HPLC Enzyme Assay

[2] = biological target: T2, Probable nicotinate-nucleotide adenylyltransferase (Bacillus anthracis (strain CDC 684 / NRRL 3495), UniProt C3L5T6); test: NaMNAT HPLC Enzyme Assay; conditions: pH 7.5; 0 °C
T2 sequence (C3L5T6 whole entry): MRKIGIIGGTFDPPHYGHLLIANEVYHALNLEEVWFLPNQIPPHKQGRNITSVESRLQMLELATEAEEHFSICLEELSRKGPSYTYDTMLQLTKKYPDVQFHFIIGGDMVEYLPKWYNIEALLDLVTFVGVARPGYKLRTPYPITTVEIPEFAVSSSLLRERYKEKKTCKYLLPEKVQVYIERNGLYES
Description: Inhibitory concentration of the compound measured against B. anthracis Nicotinic acid mononucleotide adenylyltransferase (NaMNAT)using HPLC Enzyme Assay

| SMILES | IC50 [1] [µM] | IC50 [2] [µM] |
| --- | --- | --- |
| O=C(Nc1ccc(NS(=O)(=O)c2ccc(Cl)c(Cl)c2)cc1)Nc1ccc([N+](=O)[O-])cc1 [1-[4-[(3,4-dichlorophenyl)sulfonylamino]phenyl]-3-(4-nitrophenyl)urea] | 32.7 | 7.3 |
| O=C(Nc1ccc(NS(=O)(=O)c2ccc(F)cc2)cc1)Nc1ccc([N+](=O)[O-])cc1 [1-[4-[(4-fluorophenyl)sulfonylamino]phenyl]-3-(4-nitrophenyl)urea] |  | 370 |
| O=C(Nc1ccc(NS(=O)(=O)c2ccc(Cl)c(Cl)c2)cc1)Nc1cccc([N+](=O)[O-])c1 [1-[4-[(3,4-dichlorophenyl)sulfonylamino]phenyl]-3-(3-nitrophenyl)urea] | 95.5 | 382 |
| Nc1ccc(S(=O)(=O)Nc2ccc(NC(=O)Nc3ccccc3[N+](=O)[O-])cc2)cc1 [1-[4-[(4-aminophenyl)sulfonylamino]phenyl]-3-(2-nitrophenyl)urea] | 17.1 | > 150 |
| O=C(Nc1ccc([N+](=O)[O-])cc1)Nc1ccc(S(=O)(=O)Nc2ccc(Cl)c(Cl)c2)cc1 | 6.4 | 2 |
| O=C(Nc1ccc(NS(=O)(=O)c2ccc(C(F)(F)F)cc2)cc1)Nc1cccc([N+](=O)[O-])c1 [1-(3-nitrophenyl)-3-[4-[[4-(trifluoromethyl)phenyl]sulfonylamino]phenyl]urea] | 143 |  |
| O=C(Nc1ccc(NS(=O)(=O)c2ccc(Cl)c(Cl)c2)cc1)Nc1ccccc1[N+](=O)[O-] [1-[4-[(3,4-dichlorophenyl)sulfonylamino]phenyl]-3-(2-nitrophenyl)urea] | 443 | > 600 |

From BindingDB's records for doi:10.1021/cc9000357 (University of Alabama At Birmingham, 2009)
